From patent US9428733B2, “Method for obtaining pancreatic endocrine cells from adipose tissue-origin cells” (AKIFUMI MATSUYAMA, priority 2005, dated 2016)

Tested on: pancreatic islets obtained from adipose tissue-derived cells
Assay: Insulin secretion from pancreatic islets obtained from adipose tissue-derived cells, ELISA of culture supernatant
Assay type: cell-based, Human
Conditions: 2 hours; for secretion of insulin: RPMI 1640 containing 3.3 mM or 16.7 mM glucose, FIG. 17
Procedure: The insulin level and the C-peptide level in the culture supernatant were measured using ELISA kit (Mercodia).

SMILES | secretion of insulin (100 μM) | secretion of insulin (10 μM) | amount (insulin, C-peptide) secreted by islets in medium containing theophylline versus medium without (10 mM theophylline control, 3.3 mM or 16.7 mM glucose, FIGS. 14-16)
C[N+](C)(C)CCOC(N)=O [carbachol] | promoted |  | 
CC(C)Cn1c(=O)n(C)c(=O)c2[nH]cnc21 [IBMX] | promoted |  | 
CCCCNC(=O)NS(=O)(=O)c1ccc(C)cc1 [tolbutamide] |  | promoted | 
Cn1c(=O)c2[nH]cnc2n(C)c1=O [theophylline] | promoted |  | similar
